Test results as given in patent US6528095B1, “Anti-atherosclerotic and anti-thrombotic agent and the use thereof” (Potchefstroom University for Christian Higher Education, priority 2000, dated 2003).

Tests used:
[1] = Pectin / calcium acetate supplementation in human males: body weight and BMI; format: in vivo
Text: The acetate supplement (phase 2), however, caused a decrease (from 88.16±12.35 kg to 83.09±10.80 kg) in body weight. Although this decrease may not be of statistical significance, it can be clinically significant in the cases of those subjects who lost weight.

[2] = Supplementation in human males: haemorheological variables (haematocrit, haemoglobin, plasma viscosity); format: in vivo; settings: for VISCOSITY: plasma
Experimental: (§1) The respective effects of pectin and an acetate when administered to the colon of a mammal were determined during a first experiment. The experiment was conducted in the following two phases: [drawing 1]
(§2) Twenty human males participated in the experimentation and these subjects were not on any medication for any chronic diseases at the time, and also had no history of cardiovascular disease. All the subjects were at the time following a relatively high fibre, low fat diet. During the first phase ten subjects consumed a total of 15 grams of pectin per day in four aliquots, while the other ten consumed a total of 15 grams of placebo (starch) per day in four aliquots.
(§3) During the second phase, the first group consumed a total of 7.5 grams of calcium acetate per day in four aliquots and the second group consumed a total of 15 grams of pectin per day in four aliquots. The calcium acetate was administered in capsules which were coated with a protective coating comprising a resin known commercially as shellac. This protective coating is resistant to digestion and solution in the stomach and small intestines, is but not resistant to the enzymes of the organisms usually found in the colon, so that the calcium acetate was thus released in the colon.
(§4) Blood samples where taken from the subjects after each phase and a large number of variables where tested.

[3] = tested on: fibrin clot; assay: Supplementation in human males: haemostatic variables and characteristics of fibrin networks developed in plasma; format: in vivo; settings: for CLOT (FIBRIN): clot fibrin content; for LYSIS TIME (t 50%): clot; for COMPACTION: fibrin clot; for MPC: macromolecular protein complex; for μ,: mass length ratio from turbidity; for FIBRINOGEN: plasma
Experimental: as §1, §2, §3, §4

[4] = tested on: blood lipids; assay: Supplementation in human males: lipid variables; format: in vivo; settings: for TC: total cholesterol; for TG: triglycerides
Experimental: as §1, §2, §3, §4

[5] = Supplementation in human males: metabolic variables; settings: for FFA: free fatty acids; for IR: insulin resistance; for TP: total protein
Experimental: as §1, §2, §3, §4

[6] = Pectin / calcium acetate supplementation in human males: body weight and BMI; format: in vivo; remark: listed apart in the source
[7] = phase 2, end of supplementation (pectin 15 g/day; calcium acetate 7.5 g/day)
[8] = phase 1, end of supplementation (pectin 15 g/day)

Q: For pectin, which BMI ([1]; phase 2, baseline) is on record?
A: 29.46 kg/m^2

Q: What about the “BODY WEIGHT” value ([1]; phase 2, baseline) of the same substance?
A: 92.07 kg

Q: What about the BMI [1, 7] of the same substance?
A: 29.32 kg/m^2

Q: And the “BODY WEIGHT” value [1, 7]?
A: 91.55 kg

Q: What about the HAEMATOCRIT ([2]; phase 1, baseline) of the same substance?
A: 48.70%

Q: And the HAEMOGLOBIN ([2]; phase 1, baseline)?
A: 10.30 mmol/L

Q: What about the HAEMATOCRIT [2, 8] of the same substance?
A: 48.10%

Q: What about the HAEMOGLOBIN [2, 8] of the same substance?
A: 9.60 ± mmol/l

Q: And the HAEMATOCRIT ([2]; phase 2, baseline)?
A: 47.38%

Q: What about the HAEMOGLOBIN ([2]; phase 2, baseline) of the same substance?
A: 10.82 mmol/L

Q: What about the HAEMATOCRIT [2, 7] of the same substance?
A: 45.39%

Q: And the HAEMOGLOBIN [2, 7]?
A: 9.75 ± mmol/l

Q: And the VISCOSITY ([2]; phase 1, baseline)?
A: 1.81 cP

Q: What about the VISCOSITY [2, 8] of the same substance?
A: 1.60 ± cP

Q: And the VISCOSITY ([2]; phase 2, baseline)?
A: 1.75 cP

Q: And the VISCOSITY [2, 7]?
A: 1.62 ± cP

Q: And the “CLOT (FIBRIN)” value ([3]; phase 1, baseline)?
A: 2.22 g/L

Q: What about the “CLOT (FIBRIN)” value [3, 8] of the same substance?
A: 1.90 ± g/l

Q: And the “CLOT (FIBRIN)” value ([3]; phase 2, baseline)?
A: 2.55 g/L

Q: What about the “CLOT (FIBRIN)” value [3, 7] of the same substance?
A: 1.86 ± g/l

Q: What about the “LYSIS TIME (t 50%)” value ([3]; phase 1, baseline) of the same substance?
A: 285.6

Q: What about the “LYSIS TIME (t 50%)” value [3, 8] of the same substance?
A: 232.9 ±

Q: And the “LYSIS TIME (t 50%)” value ([3]; phase 2, baseline)?
A: 285.6

Q: And the “LYSIS TIME (t 50%)” value [3, 7]?
A: 132.9 ±

Q: What about the COMPACTION ([3]; phase 1, baseline) of the same substance?
A: 21.51%

Q: What about the COMPACTION [3, 8] of the same substance?
A: 30.16 ± %

Q: And the COMPACTION ([3]; phase 2, baseline)?
A: 20.67%

Q: And the COMPACTION [3, 7]?
A: 31.53 ± %

Q: What about the MPC ([3]; phase 1, baseline) of the same substance?
A: 0.1218 g/L

Q: And the MPC [3, 8]?
A: 0.0836 ± g/l

Q: And the MPC ([3]; phase 2, baseline)?
A: 0.1002 g/L

Q: And the MPC [3, 7]?
A: 0.0807 ± g/l

Q: And the “μ,” value ([3]; phase 1, baseline)?
A: 19.94 Dal/cm × 10^12

Q: And the “μ,” value [3, 8]?
A: 24.80 ± Dal/cm × 10^12

Q: What about the “μ,” value ([3]; phase 2, baseline) of the same substance?
A: 19.02 Dal/cm × 10^12

Q: And the “μ,” value [3, 7]?
A: 32.10 ± Dal/cm × 10^12

Q: And the FIBRINOGEN ([3]; phase 1, baseline)?
A: 3.51 g/L

Q: And the FIBRINOGEN [3, 8]?
A: 3.30 g/L

Q: What about the FIBRINOGEN ([3]; phase 2, baseline) of the same substance?
A: 4.11 g/L

Q: And the FIBRINOGEN [3, 7]?
A: 3.72 g/L

Q: What about the “decrease in hydrogen peroxide (free radical) content of blood lipids” value ([4]; pectin supplementation) of the same substance?
A: 49%

Q: And the “% HDL-C” value ([4]; phase 1, baseline)?
A: 18.30%

Q: What about the ApoA ([4]; phase 1, baseline) of the same substance?
A: 1.60 mmol/L

Q: And the ApoB ([4]; phase 1, baseline)?
A: 1.70 mmol/L

Q: What about the HDL-C ([4]; phase 1, baseline) of the same substance?
A: 1.20 mmol/L

Q: What about the LDL-C ([4]; phase 1, baseline) of the same substance?
A: 4.70 mmol/L

Q: What about the TBARM ([4]; phase 1, baseline) of the same substance?
A: 0.60 µM

Q: What about the “hydrogen peroxide (H2O2)” value ([4]; phase 1, baseline) of the same substance?
A: 1.70 µM

Q: What about the “% HDL-C” value [4, 8] of the same substance?
A: 18.20 ± %

Q: And the ApoA [4, 8]?
A: 1.23 ± mmol/l

Q: What about the ApoB [4, 8] of the same substance?
A: 1.29 ± mmol/l

Q: What about the HDL-C [4, 8] of the same substance?
A: 1.03 ± mmol/l

Q: And the LDL-C [4, 8]?
A: 4.10 ± mmol/l

Q: What about the TBARM [4, 8] of the same substance?
A: 0.30 µM

Q: What about the “hydrogen peroxide (H2O2)” value [4, 8] of the same substance?
A: 0.84 ± μM

Q: What about the “% HDL-C” value ([4]; phase 2, baseline) of the same substance?
A: 15.46%

Q: And the ApoA ([4]; phase 2, baseline)?
A: 1.53 mmol/L

Q: And the ApoB ([4]; phase 2, baseline)?
A: 1.77 mmol/L

Q: What about the HDL-C ([4]; phase 2, baseline) of the same substance?
A: 0.92 mmol/L

Q: And the LDL-C ([4]; phase 2, baseline)?
A: 5.17 mmol/L

Q: What about the TBARM ([4]; phase 2, baseline) of the same substance?
A: 2.06 µM

Q: What about the “hydrogen peroxide (H2O2)” value ([4]; phase 2, baseline) of the same substance?
A: 1.20 µM

Q: And the “% HDL-C” value [4, 7]?
A: 18.79 ± %

Q: What about the ApoA [4, 7] of the same substance?
A: 1.39 ± mmol/l

Q: And the ApoB [4, 7]?
A: 1.39 ± mmol/l

Q: And the HDL-C [4, 7]?
A: 1.13 ± mmol/l

Q: And the LDL-C [4, 7]?
A: 4.59 mmol/L

Q: What about the TBARM [4, 7] of the same substance?
A: 0.61 ± μM

Q: What about the “hydrogen peroxide (H2O2)” value [4, 7] of the same substance?
A: 0.73 ± μM

Q: What about the TC ([4]; phase 1, baseline) of the same substance?
A: 6.50 mmol/L

Q: What about the TC [4, 8] of the same substance?
A: 5.67 ± mmol/l

Q: What about the TC ([4]; phase 2, baseline) of the same substance?
A: 6.89 mmol/L

Q: What about the TC [4, 7] of the same substance?
A: 6.07 mmol/L

Q: And the TG ([4]; phase 1, baseline)?
A: 2.00 mmol/L

Q: What about the TG [4, 8] of the same substance?
A: 1.78 mmol/L

Q: What about the TG ([4]; phase 2, baseline) of the same substance?
A: 1.99 mmol/L

Q: And the TG [4, 7]?
A: 1.78 mmol/L

Q: And the FFA ([5]; phase 1, baseline)?
A: 0.39 mmol/L

Q: And the FFA [5, 8]?
A: 0.31 ± mmol/l

Q: And the FFA ([5]; phase 2, baseline)?
A: 0.48 mmol/L

Q: And the FFA [5, 7]?
A: 0.40 ± mmol/l

Q: And the IR ([5]; phase 1, baseline)?
A: 4.29

Q: And the IR [5, 8]?
A: 4.16

Q: And the IR ([5]; phase 2, baseline)?
A: 9.40

Q: What about the IR [5, 7] of the same substance?
A: 5.77

Q: What about the ALBUMIN ([5]; phase 1, baseline) of the same substance?
A: 47.23 g/L

Q: What about the GLUCOSE ([5]; phase 1, baseline) of the same substance?
A: 3.98 mmol/L

Q: And the INSULIN ([5]; phase 1, baseline)?
A: 10.95 μU/ml

Q: And the PPA/ALB ([5]; phase 1, baseline)?
A: 8.26 × 10^1

Q: And the ALBUMIN [5, 8]?
A: 47.79 g/L

Q: And the GLUCOSE [5, 8]?
A: 3.72 mmol/L

Q: What about the INSULIN [5, 8] of the same substance?
A: 11.25 μU/ml

Q: And the PPA/ALB [5, 8]?
A: 6.49 ± × 10^1

Q: And the ALBUMIN ([5]; phase 2, baseline)?
A: 45.53 g/L

Q: And the GLUCOSE ([5]; phase 2, baseline)?
A: 4.29 mmol/L

Q: And the INSULIN ([5]; phase 2, baseline)?
A: 18.55 μU/ml

Q: What about the PPA/ALB ([5]; phase 2, baseline) of the same substance?
A: 10.50 × 10^1

Q: What about the ALBUMIN [5, 7] of the same substance?
A: 45.48 ± g/l

Q: And the GLUCOSE [5, 7]?
A: 4.00 mmol/L

Q: What about the INSULIN [5, 7] of the same substance?
A: 13.83 μU/ml

Q: And the PPA/ALB [5, 7]?
A: 8.78 ± × 10^1

Q: And the TP ([5]; phase 1, baseline)?
A: 60.55 g/L

Q: And the TP [5, 8]?
A: 66.84 g/L

Q: What about the TP ([5]; phase 2, baseline) of the same substance?
A: 72.36 g/L

Q: What about the TP [5, 7] of the same substance?
A: 75.21 g/L

Q: What about the weight reduction ([6]; pectin supplemented subject group) of the same substance?
A: No weight reduction

Q: What about the BMI ([6]; phase 1, baseline) of the same substance?
A: 27.50 kg/m^2

Q: What about the “BODY WEIGHT” value ([6]; phase 1, baseline) of the same substance?
A: 89.50 kg

Q: What about the BMI [6, 8] of the same substance?
A: 27.40 kg/m^2

Q: What about the “BODY WEIGHT” value [6, 8] of the same substance?
A: 89.10 kg
